Some test systems named below: CAKI-1 renal; COLO 205 colon; EKVX NSCLC; HCT-15 colon; HL-60(TB) leukemia; MALME-3M melanoma; MCF7 breast; SF-268 CNS; SNB-19 CNS; A498 renal.
Holding throughout (experiment): NCI-60 cell line screen, 48 h

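Assay format: 96-well plates, 48-hour exposure. GI50 = concentration required for 50% inhibition of growth. TGI marks complete inhibition of growth.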

As for `Cc1cc2nc(NCCN)n(Cc3ccc(F)c(Cl)c3)c2cc1C`, the GI50 was 12.7 µM in the assay with CAKI-1 renal; 1.68 µM in the assay on COLO 205 colon; 13.8 µM in the assay with EKVX NSCLC; 5.74 µM in the assay on HCT-15 colon; 2.83 µM with HL-60(TB) leukemia; 1.83 µM in the assay on MALME-3M melanoma. Also, the GI50 in the assay with MCF7 breast was 11.7 µM; in the assay on SF-268 CNS, 11.6 µM; with SNB-19 CNS, 13.6 µM. For the same compound, the TGI in the assay with CAKI-1 renal was 25.4 µM; in the assay on COLO 205 colon, 3.38 µM; in the assay on EKVX NSCLC it was 28.4 µM; in the assay with HCT-15 colon it was 19.1 µM; with HL-60(TB) leukemia it was 11.7 µM; in the assay on MALME-3M melanoma it was 4.19 µM. The TGI was 27.1 µM in the assay with MCF7 breast, 26 µM in the assay with SF-268 CNS and 28.6 µM in the assay on SNB-19 CNS.

With `O=C(CSc1nc2c(n1Nc1ccccc1)-c1ccccc1SC2)Nc1nc(-c2ccc(Cl)cc2)cs1`, the GI50 in the assay on A498 renal is 6.44 µM; in the assay on COLO 205 colon, 4.1 µM; in the assay on EKVX NSCLC it was 23.6 µM; with HCT-15 colon, > 100 µM; in the assay with MCF7 breast, > 100 µM; in the assay with SF-268 CNS, 10.8 µM. In the assay on SNB-19 CNS, the GI50 is 15.3 µM. The TGI in the assay with A498 renal was 32.8 µM; in the assay with COLO 205 colon, > 100 µM; in the assay on EKVX NSCLC, > 100 µM; in the assay on HCT-15 colon it was > 100 µM; in the assay with MCF7 breast, > 100 µM; with SF-268 CNS, > 100 µM. The TGI with SNB-19 CNS was determined as 63.5 µM.

As for `O=C(O)c1cc(-c2ccc3cc4c(cc3c2)OCO4)nc2ccccc12`, the TGI in the assay on A498 renal is 75.1 µM; in the assay with COLO 205 colon it was > 100 µM; with EKVX NSCLC, 83 µM; in the assay on HCT-15 colon, > 100 µM; with HL-60(TB) leukemia, > 100 µM; with MALME-3M melanoma, > 100 µM. Besides, the TGI with MCF7 breast, in the assay with SF-268 CNS and in the assay with SNB-19 CNS was > 100 µM in each case.

On to `C=C(c1ccc(OC)c(/C=C/C(=O)c2ccc3c(c2)OCO3)c1)c1cc(OC)c(OC)c(OC)c1`, for which the GI50 was 2.72 µM in the assay with A498 renal; 3.02 µM in the assay on CAKI-1 renal; 4.15 µM with COLO 205 colon; 4.67 µM in the assay on EKVX NSCLC; 2.67 µM in the assay on HL-60(TB) leukemia; > 100 µM in the assay on MALME-3M melanoma. The GI50 is 0.913 µM with MCF7 breast, 3.18 µM in the assay with SF-268 CNS and 2.79 µM with SNB-19 CNS. The TGI in the assay on A498 renal, with CAKI-1 renal, with COLO 205 colon, in the assay on EKVX NSCLC, in the assay on HL-60(TB) leukemia and with MALME-3M melanoma was > 100 µM in each case. In addition, the TGI with MCF7 breast, with SF-268 CNS and in the assay on SNB-19 CNS was > 100 µM each time.

Regarding `Cc1nc([N+](=O)[O-])cn1-c1nc2ccccn2c1[N+](=O)[O-]`, the TGI in the assay with A498 renal, in the assay on CAKI-1 renal, in the assay on COLO 205 colon, with EKVX NSCLC, with HCT-15 colon and with MALME-3M melanoma was > 100 µM in each case. Besides, the TGI in the assay with MCF7 breast, in the assay with SF-268 CNS and in the assay with SNB-19 CNS was > 100 µM throughout.

On to `CCC[C@H]1O[C@@H]2CC(=O)O[C@@H]2C2=C1C(=O)C=CC2=O`, for which the TGI in the assay with A498 renal is > 70.3 µM; in the assay with CAKI-1 renal, 34.1 µM; in the assay with COLO 205 colon it was 9.03 µM; in the assay with EKVX NSCLC, > 62.4 µM; in the assay on HCT-15 colon, 32.4 µM; in the assay with HL-60(TB) leukemia, 37.7 µM. For the same compound, the results for the TGI in the assay with MALME-3M melanoma, with SF-268 CNS and in the assay with SNB-19 CNS were 32.3 µM, 18.7 µM and > 100 µM, respectively.

Take `CN(CCS(=O)(=O)N1C(=O)C2CCCN2C(=O)[C@@H]1Cc1ccccc1)C(=O)OCc1ccccc1` (stereo not given in full): the TGI in the assay on A498 renal was > 100 µM; in the assay with CAKI-1 renal, > 100 µM; in the assay with COLO 205 colon, > 100 µM; in the assay with EKVX NSCLC, > 100 µM; in the assay on HCT-15 colon, > 100 µM; in the assay on HL-60(TB) leukemia it was 27.4 µM. Further, the TGI in the assay on MALME-3M melanoma, in the assay with SF-268 CNS and in the assay on SNB-19 CNS was > 100 µM in each case.

`COc1ccc(/C=C\c2cc(OC)c(OC)c(OC)c2)cc1OCC(=O)Nc1nc2ccc(F)cc2s1`: the GI50 in the assay with A498 renal is 6.25 µM; in the assay with CAKI-1 renal it was 2.78 µM; with COLO 205 colon it was 7.78 µM; in the assay with EKVX NSCLC, 5.72 µM; with HCT-15 colon, 8.19 µM; in the assay on MALME-3M melanoma it was 5.22 µM. Further, the values for the GI50 in the assay with MCF7 breast, with SF-268 CNS and in the assay on SNB-19 CNS were 2.3 µM, 7.23 µM and > 100 µM, respectively. The TGI in the assay on A498 renal, with CAKI-1 renal, with COLO 205 colon, in the assay with EKVX NSCLC, in the assay with HCT-15 colon and in the assay on MALME-3M melanoma was > 100 µM in each case. The TGI in the assay on MCF7 breast, in the assay with SF-268 CNS and in the assay on SNB-19 CNS was > 100 µM throughout.

With `C=C[C@@H](C)[C@]1(C(=O)OC)CCCC12OCCO2`, the TGI in the assay on A498 renal, in the assay on CAKI-1 renal, in the assay on COLO 205 colon, in the assay with EKVX NSCLC, in the assay with HCT-15 colon and with HL-60(TB) leukemia was > 100 µM each time. The TGI in the assay with MALME-3M melanoma, in the assay with SF-268 CNS and in the assay on SNB-19 CNS was > 100 µM in each case.

As for `Cc1ccc(C)c(N2C(=O)C(=O)C(c3nc4ccccc4s3)/C(=N/N)C2=O)c1` (stereo not given), the TGI in the assay on A498 renal is > 22.6 µM; in the assay with CAKI-1 renal, > 100 µM; with COLO 205 colon it was > 100 µM; with EKVX NSCLC, > 100 µM; in the assay on HCT-15 colon, > 100 µM; with HL-60(TB) leukemia it was > 100 µM. The TGI in the assay on MALME-3M melanoma, with SF-268 CNS and in the assay on SNB-19 CNS was > 100 µM in each case.

`COc1ccc(C(=O)C(CN(C)C)CN(C)C)cc1`: the GI50 was 18.6 µM in the assay with A498 renal; 1.89 µM in the assay on CAKI-1 renal; 1.11 µM in the assay with COLO 205 colon; 13.7 µM in the assay with EKVX NSCLC; 2.47 µM in the assay with HCT-15 colon; 0.116 µM in the assay with HL-60(TB) leukemia. Further, the GI50 in the assay on MCF7 breast was 2.73 µM; with SF-268 CNS, 13.7 µM; in the assay with SNB-19 CNS, 16.3 µM. The TGI in the assay on A498 renal turned out to be 32.7 µM; with CAKI-1 renal, 3.56 µM; in the assay on COLO 205 colon, 2.32 µM; in the assay with EKVX NSCLC, 51.1 µM; in the assay on HCT-15 colon it was 6.85 µM; in the assay on HL-60(TB) leukemia, 1.87 µM. In addition, the TGI in the assay with MCF7 breast was determined as 12.3 µM; with SF-268 CNS, 42.3 µM; with SNB-19 CNS, 33.1 µM.

(Values after PubChem BioAssay (NCI).)
